Measured values taken from PubChem BioAssay (NCI).
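Each compound was tested at five concentrations against cells in 96-well plates for 48 hours. Definition used: TGI = concentration required for complete inhibition of growth.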

Tests used:
Test in all cases: growth of human tumour cells (NCI), 48 h
[1] = system: 786-0 renal
[2] = system: A549 NSCLC
[3] = system: ACHN renal
[4] = system: CAKI-1 renal
[5] = system: CCRF-CEM leukemia
[6] = system: COLO 205 colon
[7] = system: DLD-1 colon
[8] = system: DMS 114 small cell lung
[9] = system: DMS 273 small cell lung
[10] = system: EKVX NSCLC
[11] = system: HCC-2998 colon
[12] = system: HCT-116 colon
[13] = system: HL-60(TB) leukemia
[14] = system: HOP-18 NSCLC
[15] = system: HOP-62 NSCLC
[16] = system: HOP-92 NSCLC
[17] = system: HT29 colon
[18] = system: IGROV1 ovarian
[19] = system: K-562 leukemia
[20] = system: KM12 colon
[21] = system: KM20L2 colon
[22] = system: M14 melanoma
[23] = system: M19-MEL melanoma
[24] = system: MALME-3M melanoma
[25] = system: MOLT-4 leukemia
[26] = system: NCI-H226 lung
[27] = system: NCI-H23 lung
[28] = system: NCI-H460 lung
[29] = system: OVCAR-3 ovarian
[30] = system: OVCAR-4 ovarian
[31] = system: OVCAR-5 ovarian
[32] = system: OVCAR-8 ovarian
[33] = system: RXF 393 renal
[34] = system: RXF-631 renal
[35] = system: SF-268 CNS
[36] = system: SF-295 CNS
[37] = system: SF-539 CNS
[38] = system: SK-MEL-28 melanoma
[39] = system: SK-MEL-5 melanoma
[40] = system: SK-OV-3 ovarian
[41] = system: SN12C renal
[42] = system: SNB-19 CNS
[43] = system: SNB-78 CNS
[44] = system: SR leukemia
[45] = system: SW-620 colon
[46] = system: U251 CNS
[47] = system: UACC-257 melanoma
[48] = system: UACC-62 melanoma
[49] = system: UO-31 renal
[50] = system: A498 renal
[51] = system: NCI-H522 lung
[52] = system: TK-10 renal
[53] = system: LOX IMVI melanoma
[54] = system: LXFL 529 NSCLC
[55] = system: RPMI-8226 leukemia
[56] = system: SK-MEL-2 melanoma
[57] = system: SNB-75 CNS
[58] = system: XF 498 CNS
[59] = system: HCT-15 colon

Cc1c(C(=O)Nc2ccc(Cl)cc2)nc(N)nc1-c1cccc(Cl)c1
TGI [1]: > 100 µM | TGI [2]: > 100 µM | TGI [3]: > 100 µM | TGI [4]: > 100 µM | TGI [5]: > 100 µM | TGI [6]: > 100 µM | TGI [7]: > 100 µM | TGI [8]: > 100 µM | TGI [9]: > 100 µM | TGI [10]: > 100 µM | TGI [11]: > 100 µM | TGI [12]: > 100 µM | TGI [13]: > 100 µM | TGI [14]: > 100 µM | TGI [15]: > 100 µM | TGI [16]: 95.6 µM | TGI [17]: > 100 µM | TGI [18]: > 100 µM | TGI [19]: > 100 µM | TGI [20]: > 100 µM | TGI [21]: > 100 µM | TGI [22]: > 100 µM | TGI [23]: > 100 µM | TGI [24]: > 100 µM | TGI [25]: > 100 µM | TGI [26]: > 100 µM | TGI [27]: > 100 µM | TGI [28]: > 100 µM | TGI [29]: > 100 µM | TGI [30]: > 100 µM | TGI [31]: > 100 µM | TGI [32]: > 100 µM | TGI [33]: > 100 µM | TGI [34]: > 100 µM | TGI [35]: > 100 µM | TGI [36]: > 100 µM | TGI [37]: > 100 µM | TGI [38]: > 100 µM | TGI [39]: > 100 µM | TGI [40]: > 100 µM | TGI [41]: > 100 µM | TGI [42]: > 100 µM | TGI [43]: > 100 µM | TGI [44]: > 100 µM | TGI [45]: > 100 µM | TGI [46]: > 100 µM | TGI [47]: > 100 µM | TGI [48]: > 100 µM | TGI [49]: > 100 µM

CCNC(CCCC(NCC)P(=O)(O)O)P(=O)(O)O (configuration not stated)
TGI [50]: > 100 µM | TGI [2]: > 100 µM | TGI [5]: > 100 µM | TGI [12]: > 100 µM | TGI [13]: > 100 µM | TGI [15]: > 100 µM | TGI [16]: > 100 µM | TGI [17]: > 100 µM | TGI [18]: > 100 µM | TGI [20]: > 100 µM | TGI [21]: > 100 µM | TGI [22]: > 100 µM | TGI [23]: > 100 µM | TGI [25]: > 100 µM | TGI [26]: > 100 µM | TGI [27]: > 100 µM | TGI [28]: > 100 µM | TGI [51]: > 100 µM | TGI [31]: > 100 µM | TGI [32]: > 100 µM | TGI [33]: > 100 µM | TGI [34]: > 100 µM | TGI [36]: > 100 µM | TGI [38]: > 100 µM | TGI [40]: > 100 µM | TGI [42]: > 100 µM | TGI [43]: > 100 µM | TGI [44]: > 100 µM | TGI [52]: > 100 µM | TGI [46]: > 100 µM | TGI [47]: > 100 µM | TGI [48]: > 100 µM | TGI [49]: > 100 µM

CCCCCC/C(CC(=O)CCC(=O)NCCc1ccccc1)=N\NC(=O)c1ccc2ccccc2c1O
TGI [1]: > 100 µM | TGI [2]: > 100 µM | TGI [3]: > 100 µM | TGI [5]: 47.4 µM | TGI [6]: > 100 µM | TGI [7]: > 100 µM | TGI [10]: > 100 µM | TGI [11]: > 100 µM | TGI [12]: > 100 µM | TGI [13]: 33.7 µM | TGI [14]: 63.9 µM | TGI [15]: > 100 µM | TGI [16]: > 100 µM | TGI [17]: > 100 µM | TGI [18]: > 100 µM | TGI [20]: > 100 µM | TGI [21]: > 100 µM | TGI [53]: 48.5 µM | TGI [54]: > 100 µM | TGI [22]: > 100 µM | TGI [23]: 88.4 µM | TGI [24]: > 100 µM | TGI [25]: 56.5 µM | TGI [26]: > 100 µM | TGI [27]: > 100 µM | TGI [28]: > 100 µM | TGI [29]: > 100 µM | TGI [30]: > 100 µM | TGI [31]: 54.2 µM | TGI [32]: > 100 µM | TGI [55]: > 100 µM | TGI [33]: > 100 µM | TGI [34]: > 100 µM | TGI [35]: > 100 µM | TGI [36]: > 100 µM | TGI [56]: 53.7 µM | TGI [38]: > 100 µM | TGI [39]: 69.5 µM | TGI [41]: > 100 µM | TGI [42]: > 100 µM | TGI [57]: > 100 µM | TGI [43]: > 100 µM | TGI [45]: > 100 µM | TGI [52]: > 100 µM | TGI [46]: > 100 µM | TGI [47]: > 100 µM | TGI [48]: 50.8 µM | TGI [49]: > 100 µM | TGI [58]: > 100 µM

CCN(CC)c1ccc(N=C2C=CC(=C(C#N)C#N)c3ccccc32)c(C)c1
TGI [1]: 6.24 µM | TGI [2]: 5.33 µM | TGI [3]: 10.9 µM | TGI [4]: 5.4 µM | TGI [5]: 6.1 µM | TGI [6]: 8.05 µM | TGI [7]: 6.5 µM | TGI [9]: 6.51 µM | TGI [10]: 18.4 µM | TGI [12]: 5.8 µM | TGI [59]: 10.2 µM | TGI [13]: 3.61 µM | TGI [14]: 10.3 µM | TGI [15]: 6.25 µM | TGI [16]: 2.19 µM | TGI [17]: 24.9 µM | TGI [18]: 8.86 µM | TGI [19]: 5.47 µM | TGI [21]: 6.75 µM | TGI [53]: 4.75 µM | TGI [22]: 3.6 µM | TGI [23]: 5.77 µM | TGI [24]: 4.51 µM | TGI [25]: 9.63 µM | TGI [27]: 3.33 µM | TGI [28]: 8.41 µM | TGI [29]: 3.82 µM | TGI [30]: 5.63 µM | TGI [32]: 7.28 µM | TGI [55]: 15.2 µM | TGI [33]: 3.24 µM | TGI [36]: 5.66 µM | TGI [56]: 5.48 µM | TGI [38]: 4.22 µM | TGI [39]: 2.92 µM | TGI [40]: 24 µM | TGI [41]: 7.86 µM | TGI [42]: 13.1 µM | TGI [57]: 5.69 µM | TGI [43]: 6.42 µM | TGI [52]: 9.58 µM | TGI [46]: 3.44 µM | TGI [47]: 5.78 µM | TGI [48]: 3.43 µM | TGI [49]: 6.95 µM | TGI [58]: 2.89 µM
